Patent EP2108650A1, “Novel aureothin derivatives” (Leibniz-Institut für Naturstoff-Forschung und …, priority 2008, dated 2009)
Where two headings read alike, the source gives them in different places.

Assays:
[1] = tested on: human K-562 leukemia cells; test: Antiproliferative assay on K-562 cells (CellTiter-Blue viability readout); type: cell-based; settings: for IC50: Homo sapiens; for increase of antiproliferative activity compared to aureothin: ratio of IC50 versus aureothin
Procedure: Cells were grown in the appropiate cell culture medium supplemented with 10 mL L^-1 ultraglutamine 1 (Cambrex 17-605E/U1), 500 µL L^-1 gentamicin sulfate (CAMBREX 17-518Z), and 10% heat inactivated fetal bovine serum (PAA A15-144) at 37°C in high density polyethylene flasks (NUNC 156340).
The test substances are dissolved in DMSO before being diluted in DMEM. […] were harvested at the logarithmic growth phase after soft trypsinization, using 0.25% trypsin in PBS containing 0.02% EDTA (Biochrom KG L2163). For each experiment approximately 10,000 cells were seeded with 0.1 mL culture medium per well of the 96-well microplates (NUNC 167008).
The cells were incubated with dilutions of the test substances for 72 hours at 37°C in a humidified atmosphere and 5% CO2.
For estimating the influence of chemical compounds on cell proliferation of K-562 we determinate the numbers of viable cells present in multiwell plates via CellTiter-Blue® assay. It uses the indicator dye resazurin to measure the metabolic capacity of cells as indicator of cell viability. Viable cells of untreated control retain the ability to reduce resazurin into resorufin, which is highly fluorescent. […] Under our experimental conditions, the signal from the CellTiter-Blue® reagent is proportional to the number of viable cells.
The GI50 and CC50 values were defined as being where the concentration-response curve intersected the 50% line, compared to untreated control. These comparisons of the different values were performed with software Magellan (TECAN).
A repeat determination has been conducted in all cases.

[2] = tested on: fungal strains like Candida albicans, Sporobolomyces salmonicolor, Penicillium notatum, Glomerella or several Aspergillus spp.; test: Antimicrobial / antifungal activity testing; type: cell-based; settings: qualitative; compared with the other antimicrobial activities or with aureothin
[3] = K562, DOA derivatives, K-562 cells, 72 h incubation (assay inferred; table has no title), read-out: IC50

Structure (SMILES) | IC50 ([1]; K562, 72 h) | IC50 [1, 3] | increase of antiproliferative activity compared to aureothin ([1]; K-562 cells) | effect against fungal strains [2] | IC50 ([1]; K562, read-out: IC50 antiproliferative activity against K-562 cells)
COc1oc(CC/C(C)=C/C(C)=C/c2ccc(C#N)cc2)c(C)c(=O)c1C [R = Ar-CN, deoxyaureonitrile] | 1000 nM | 0.5 µg/mL | up to 25 fold | activities comparable to aureothin | 
COc1oc(CC/C(C)=C/C(C)=C/c2ccc([N+](=O)[O-])cc2)c(C)c(=O)c1C [Deoxyaureothin, deoxyaureothin, reference compound] |  |  | 5 fold |  | 5000 nM
COc1oc(CC/C(C)=C/C(C)=C/c2ccc(Br)cc2)c(C)c(=O)c1C [R = Ar-Br, p-bromo-DOA] | 1000 nM | 0.5 µg/mL |  |  | 

More lines, main results first:

IC50 ([1]; K562, 72 h) | IC50 [1, 3] | Structure (SMILES) | increase of antiproliferative activity compared to aureothin ([1]; K-562 cells) | effect against fungal strains [2] | IC50 ([1]; K562, read-out: IC50 antiproliferative activity against K-562 cells)
21000 nM | 8 µg/mL | COc1oc(CC/C(C)=C/C(C)=C/c2ccc3ccccc3c2)c(C)c(=O)c1C [R = Ar-Ph, 2-naphthoate-DOA] |  |  | 
2000 nM | 0.8 µg/mL | COc1oc(CC/C(C)=C/C(C)=C/c2ccc(Cl)cc2)c(C)c(=O)c1C [R = Ar-Cl, p-chloro-DOA] |  |  | 
1000 nM | 0.5 µg/mL | COc1oc(CC/C(C)=C/C(C)=C/c2ccc(F)cc2)c(C)c(=O)c1C [R = Ar-F, p-fluoro-DOA] |  |  | 
1000 nM | 0.5 µg/mL | COc1oc(CC/C(C)=C/C(C)=C/c2ccc(I)cc2)c(C)c(=O)c1C [R = Ar-I, p-iodo-DOA] |  |  | 
